Reference: patent publication US12503471B2, “Triazatricycle compounds for the treatment of autoimmune disease” (Hoffmann-La Roche Inc., priority 2019, dated 2025)

Target: T1, human TLR8 (Homo sapiens, UniProt Q9NR97)
T1 construct: host or cells: HEK293 (HEK-Blue hTLR8)
T1 sequence (Q9NR97 27-1041): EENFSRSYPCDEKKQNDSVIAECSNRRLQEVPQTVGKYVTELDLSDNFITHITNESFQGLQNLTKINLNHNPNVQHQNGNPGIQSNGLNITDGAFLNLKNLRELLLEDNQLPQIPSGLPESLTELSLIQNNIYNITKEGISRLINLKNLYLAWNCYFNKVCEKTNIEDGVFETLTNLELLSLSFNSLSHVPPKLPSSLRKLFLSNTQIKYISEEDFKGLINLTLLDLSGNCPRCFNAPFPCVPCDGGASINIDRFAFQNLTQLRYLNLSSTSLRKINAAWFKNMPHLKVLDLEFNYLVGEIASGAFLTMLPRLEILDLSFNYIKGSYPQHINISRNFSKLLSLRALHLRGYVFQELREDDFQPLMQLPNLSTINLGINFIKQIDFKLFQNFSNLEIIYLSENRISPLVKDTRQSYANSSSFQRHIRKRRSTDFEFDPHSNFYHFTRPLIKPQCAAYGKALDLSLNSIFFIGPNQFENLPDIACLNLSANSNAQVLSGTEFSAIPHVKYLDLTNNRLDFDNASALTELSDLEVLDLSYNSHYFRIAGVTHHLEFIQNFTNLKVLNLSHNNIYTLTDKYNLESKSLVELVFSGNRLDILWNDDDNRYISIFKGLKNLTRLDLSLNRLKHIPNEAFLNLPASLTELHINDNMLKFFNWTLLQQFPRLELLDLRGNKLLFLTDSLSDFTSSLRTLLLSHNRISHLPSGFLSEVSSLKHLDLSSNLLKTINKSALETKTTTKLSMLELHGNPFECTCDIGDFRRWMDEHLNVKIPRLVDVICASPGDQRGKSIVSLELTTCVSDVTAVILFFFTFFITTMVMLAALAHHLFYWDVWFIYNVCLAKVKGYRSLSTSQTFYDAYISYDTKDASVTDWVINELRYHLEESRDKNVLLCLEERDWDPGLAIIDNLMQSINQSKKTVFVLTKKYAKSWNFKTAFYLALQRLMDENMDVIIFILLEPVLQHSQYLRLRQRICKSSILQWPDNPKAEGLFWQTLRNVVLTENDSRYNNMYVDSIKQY
Assay: HEK293-Blue-hTLR-8 cells assay
Assay type: cell-based
Conditions: HEK293-Blue-hTLR8 cells, R848 stimulation, 20 hrs, SEAP reporter; read-out: HEK/hTLR8 IC50
From the text: HEK293-Blue-hTLR-8 Cells Assay:
A stable HEK293-Blue-hTLR-8 cell line was purchased from InvivoGen (Cat. #: hkb-htlr8, San Diego, Calif., USA). These cells were originally designed for studying the stimulation of human TLR8 by monitoring the activation of NF-κB. A SEAP (secreted embryonic alkaline phosphatase) reporter gene was placed under the control of the IFN-β minimal promoter fused to five NF-κB and AP-1-binding sites. The SEAP was induced by activating NF-κB and AP-1 via stimulating HEK-Blue hTLR8 cells with TLR8 ligands. Therefore the reporter expression was declined by TLR8 antagonist under the stimulation of a ligand, such as R848, for incubation of 20 hrs. The cell culture supernatant SEAP reporter activity was determined using QUANTI-Blue™ kit (Cat. #: rep-qbl, Invivogen, San Diego, Ca, USA) at a wavelength of 640 nm, a detection medium that turns purple or blue in the presence of alkaline phosphatase.
HEK293-Blue-hTLR8 cells were incubated at a density of 250,000˜450,000 cells/mL in a volume of 170 μL in a 96-well plate in Dulbecco's Modified Eagle's medium (DMEM) containing 4.5 g/L glucose, 50 U/mL penicillin, […], […], 2 mM L-glutamine, 10% (v/v) heat-inactivated fetal bovine serum with addition of 20 μL test compound in a serial dilution in the presence of final DMSO at 1% and 10 μL of 60 uM R848 in above DMEM, perform incubation under 37° C. in a CO2 incubator for 20 hrs. Then 20 μL of the supernatant from each well was incubated with 180 μL Quanti-blue substrate solution at 37° C. for 2 hrs and the absorbance was read at 620-655 nm using a spectrophotometer. The signaling pathway that TLR8 activation leads to downstream NF-κB activation has been widely accepted, and therefore similar reporter assay was modified for evaluating TLR8 antagonist.

SMILES | IC50
[2H]c1ccc2c(N3C[C@@H](C)N4Cc5nc(N6CC[C@](C)(N)C6)ccc5[C@H]4C3)ccc(C#N)c2n1 [Example 8, 5-[(2S,6R)-11-[(3S)-3-amino-3-methyl-pyrrolidin-1-yl]-6-methyl-4,7,10-triazatricyclo[7.4.0.02,7]trideca-1(9),10,12-trien-4-yl]-2-deuterio-quinoline-8-carbonitrile] | < 0.3 nM
[2H]c1ccc2c(N3C[C@@H](C)N4Cc5nc(N6CC[C@H](N)[C@H](OC)C6)ccc5[C@H]4C3)ccc(C#N)c2n1 [Example 13, 5-[(2S,6R)-11-[(3R,4S)-4-amino-3-methoxy-1-piperidyl]-6-methyl-4,7,10-triazatricyclo[7.4.0.02,7]trideca-1(9),10,12-trien-4-yl]-2-deuterio-quinoline-8-carbonitrile] | < 0.3 nM
CC1(N)CCN(c2ccc3c(n2)CN2CCN(c4ccc(C#N)c5ncccc45)C[C@@H]32)CC1 [Example 4A, 5-[(2R)-11-(4-amino-4-methyl-1-piperidyl)-4,7,10-triazatricyclo[7.4.0.02,7]trideca-1(9),10,12-trien-4-yl]quinoline-8-carbonitrile] | 1.9 nM
[2H]c1ccc2c(N3C[C@@H](C)N4Cc5nc(N6CC[C@@](C)(N)C6)ccc5[C@H]4C3)ccc(C#N)c2n1 [Example 7, 5-[(2S,6R)-11-[(3R)-3-amino-3-methyl-pyrrolidin-1-yl]-6-methyl-4,7,10-triazatricyclo[7.4.0.02,7]trideca-1(9),10,12-trien-4-yl]-2-deuterio-quinoline-8-carbonitrile] | < 0.3 nM
[2H]c1ccc2c(N3C[C@@H](C)N4Cc5nc(N6CC[C@H](N)[C@@H](OC)C6)ccc5[C@H]4C3)ccc(C#N)c2n1 [Example 12, 5-[(2S,6R)-11-[(3S,4S)-4-amino-3-methoxy-1-piperidyl]-6-methyl-4,7,10-triazatricyclo[7.4.0.02,7]trideca-1(9),10,12-trien-4-yl]-2-deuterio-quinoline-8-carbonitrile] | < 0.3 nM
[2H]c1ccc2c(N3C[C@@H](C)N4Cc5nc(N6CC[C@@H](N)[C@H](OC)C6)ccc5[C@H]4C3)ccc(C#N)c2n1 [Example 11, 5-[(2S,6R)-11-[(3R,4R)-4-amino-3-methoxy-1-piperidyl]-6-methyl-4,7,10-triazatricyclo[7.4.0.02,7]trideca-1(9),10,12-trien-4-yl]-2-deuterio-quinoline-8-carbonitrile] | < 0.3 nM
C[C@@H]1CN(c2ccc(C#N)c3ncccc23)C[C@@H]2c3cnc(N4CCNCC4)cc3CN12 [Example 2, 5-[(2S,6R)-6-methyl-11-piperazin-1-yl-4,7,12-triazatricyclo[7.4.0.02,7]trideca-1(9),10,12-trien-4-yl] quinoline-8-carbonitrile] | 0.4 nM
[2H]c1ccc2c(N3C[C@@H](C)N4Cc5nc(N6C[C@H]7C[C@@H]6CN7)ccc5[C@H]4C3)ccc(C#N)c2n1 [Example 17, 2-Deuterio-5-[(2S,6R)-11-[(1R,4R)-2,5-diazabicyclo[2.2.1]heptan-2-yl]-6-methyl-4,7,10-triazatricyclo[7.4.0.02,7]trideca-1(9),10,12-trien-4-yl]quinoline-8-carbonitrile] | < 0.3 nM
[2H]c1ccc2c(N3C[C@@H](C)N4Cc5nc(N6CC[C@@H](OC)[C@H](N)C6)ccc5[C@H]4C3)ccc(C#N)c2n1 [Example 15, 5-[(2S,6R)-11-[(3R,4R)-3-amino-4-methoxy-1-piperidyl]-6-methyl-4,7,10-triazatricyclo[7.4.0.02,7]trideca-1(9),10,12-trien-4-yl]-2-deuterio-quinoline-8-carbonitrile] | < 0.3 nM
[2H]c1ccc2c(N3C[C@@H](C)N4Cc5nc(N6CC[C@H]7CNC[C@H]76)ccc5[C@H]4C3)ccc(C#N)c2n1 [Example 10, 5-[(2S,6R)-11-[(3aS,6aS)-3,3a,4,5,6,6a-hexahydro-2H-pyrrolo[2,3-c]pyrrol-1-yl]-6-methyl-4,7,10-triazatricyclo[7.4.0.02,7]trideca-1(9),10,12-trien-4-yl]-2-deuterio-quinoline-8-carbonitrile] | < 0.3 nM
N#Cc1ccc(N2CCN3Cc4nc(N5CCNCC5)ccc4[C@@H]3C2)c2cccnc12 [Example 3A, 5-[(2R)-11-piperazin-1-yl-4,7,10-triazatricyclo[7.4.0.02,7]trideca-1(9),10,12-trien-4-yl]quinoline-8-carbonitrile] | 0.5 nM

More lines, now with the values ahead:

IC50 | SMILES
< 0.3 nM | C[C@@H]1CN(c2ccc(C#N)c3ncccc23)C[C@@H]2c3ccc(N4CCCNCC4)nc3CN12 [Example 20, 5-[(2S,6R)-11-(1,4-diazepan-1-yl)-6-methyl-4,7,10-triazatricyclo[7.4.0.02,7]trideca-1(9),10,12-trien-4-yl]quinoline-8-carbonitrile]
< 0.3 nM | [2H]c1ccc2c(N3C[C@@H](C)N4Cc5nc(O[C@H]6CCNC6)ccc5[C@H]4C3)ccc(C#N)c2n1 [Example 25, 2-Deuterio-5-[(2S,6R)-6-methyl-11-[(3S)-pyrrolidin-3-yl]oxy-4,7,10-triazatricyclo[7.4.0.02,7]trideca-1(9),10,12-trien-4-yl]quinoline-8-carbonitrile]
< 0.3 nM | [2H]c1ccc2c(N3C[C@@H](C)N4Cc5nc(N6CCC(C)(N)CC6)ccc5[C@H]4C3)ccc(C#N)c2n1 [Example 19, 5-[(2S,6R)-11-(4-amino-4-methyl-1-piperidyl)-6-methyl-4,7,10-triazatricyclo[7.4.0.02,7]trideca-1(9),10,12-trien-4-yl]-2-deuterio-quinoline-8-carbonitrile]
0.7 nM | [2H]c1ccc2c(N3C[C@@H](C)N4Cc5nc(N6CCC7(CNC7)C6)ccc5[C@H]4C3)ccc(C#N)c2n1 [Example 9, 2-Deuterio-5-[(2S,6R)-11-(2,6-diazaspiro[3.4]octan-6-yl)-6-methyl-4,7,10-triazatricyclo[7.4.0.02,7]trideca-1(9),10,12-trien-4-yl]quinoline-8-carbonitrile]
< 0.3 nM | [2H]c1ccc2c(N3C[C@@H](C)N4Cc5nc(OC6CCNCC6)ccc5[C@H]4C3)ccc(C#N)c2n1 [Example 24, 2-Deuterio-5-[(2S,6R)-6-methyl-11-(4-piperidyloxy)-4,7,10-triazatricyclo[7.4.0.02,7]trideca-1(9),10,12-trien-4-yl]quinoline-8-carbonitrile]
< 0.3 nM | C[C@@H]1CN(c2ccc(C#N)c3ncccc23)C[C@@H]2c3ccc(N4CCNCC4)nc3CN12 [Example 5, 5-[(2S,6R)-6-methyl-11-piperazin-1-yl-4,7,10-triazatricyclo[7.4.0.02,7]trideca-1(9),10,12-trien-4-yl]quinoline-8-carbonitrile]
2.3 nM | C[C@@H]1CN(c2ccc(C#N)c3ncccc23)C[C@@H]2c3ccc(N4CC5CNCC(C4)O5)nc3CN12 [Example 6, 5-[(2S,6R)-6-methyl-11-(9-oxa-3,7-diazabicyclo[3.3.1]nonan-3-yl)-4,7,10-triazatricyclo[7.4.0.02,7]trideca-1(9),10,12-trien-4-yl]quinoline-8-carbonitrile]
0.4 nM | [2H]c1ccc2c(N3C[C@@H](C)N4Cc5nc(N6C[C@@H]7C[C@H]6CN7)ccc5[C@H]4C3)ccc(C#N)c2n1 [Example 16, 2-Deuterio-5-[(2S,6R)-11-[(1S,4S)-2,5-diazabicyclo[2.2.1]heptan-2-yl]-6-methyl-4,7,10-triazatricyclo[7.4.0.02,7]trideca-1(9),10,12-trien-4-yl]quinoline-8-carbonitrile]
